Measurements from PMC9781020, “Anti-Mycobacterial N-(2-Arylethyl)quinolin-3-amines Inspired by Marine Sponge-Derived Alkaloid” (Molecules, 2022).
In brackets after ≈: the same amount, converted by molar mass. Like-named read-outs stand apart in the source and are kept apart here.

Columns and labels:
[1] = system: M. bovis BCG; assay: microbe, parasite or virus in culture; type: cell-based, Mycobacterium bovis BCG Pasteur; conditions: for anti-mycobacterial activity (in words): M. bovis BCG; for MIC: Mycobacterium tuberculosis variant bovis BCG, BCG
[2] = Cytotoxicity against HUVECs (WST-8); type: cell-based, human; conditions: human, HUVECs (human umbilical vein endothelial cells), 72 h
Procedure: (§1) HUVECs (5 × 10^5 cells/vial) was purchased from Kurabo Inc. and grown in HuMedia-EG2 medium with growth supplements (Kurabo Inc., Osaka, Japan). HUVECs in the culture medium was plated into each well of 96-well plates (2 × 10^3 cells/well/100 µL). After 24 h, the serially diluted compounds, which were dissolved in the medium containing no more than 0.5% EtOH, were added, and then the plates were incubated for an additional 72 h in a humidified atmosphere of 5% CO2 at 37 °C. The cell proliferation was detected by WST-8 colorimetric reagent (Nacalai Tesque, Inc., Kyoto, Japan). The IC50 value was determined by linear interpolation from the growth inhibition curve.

[3] = system: HUVECs; assay: Cytotoxicity against HUVECs (WST-8); type: cell-based, human
Procedure: as §1

Structure (SMILES)	anti-mycobacterial activity (in words) [1]	MIC ([1]; 168 h, read-out: MIC (Aerobic)) [µM]	MIC ([1]; 336 h, read-out: MIC (Hypoxic)) [µM]	IC50 at 72 h [2] [µM]	cytotoxicity (in words) [3]
c1ccc2cc(CCNc3cnc4ccccc4c3)ccc2c1 [Compound 44, N-(2-(Naphthalen-2-yl)ethyl)quinolin-3-amine]	good anti-mycobacterial activity under aerobic and hypoxic conditions	6.25 (≈ 1.86 µg/mL)	12.5 (≈ 3.73 µg/mL)	13	
c1ccc(CCNc2cccnc2)cc1 [Compound 8, N-Phenethylpyridin-3-amine]	weak anti-mycobacterial activity	200 (≈ 39.7 µg/mL)	200 (≈ 39.7 µg/mL)	> 100	
NNC(=O)c1ccncc1 [isoniazid, reference compound]		0.39 (≈ 0.0535 µg/mL)	> 200		
CN(CCc1ccccc1)c1cnc2ccccc2c1 [Compound 37, N-Methyl-N-phenethylquinolin-3-amine]	antibacterial activity comparable to that of 6	6.25 (≈ 1.64 µg/mL)	50 (≈ 13.1 µg/mL)	16	
O=C1C=CC(=O)c2ncc(NCCc3ccccc3)cc21 [Compound 25, 3-(Phenethylamino)quinoline-5,8-dione]	weakened anti-mycobacterial activity	100 (≈ 27.8 µg/mL)	> 200	< 1	enhanced cytotoxicity
COC1=Cc2ccnc3c(NCCc4ccccc4)cnc(c23)C1=O [Compound 1, 3-(phenethylamino)demethyl(oxy)aaptamine, reference compound]		1.56 (≈ 0.517 µg/mL)	1.56 (≈ 0.517 µg/mL)	1.36	
O=C(Cc1ccccc1)Nc1cnc2ccccc2c1 [Compound 36, 2-Phenyl-N-(quinolin-3-yl)acetamide]	significantly weakened anti-mycobacterial activity	100 (≈ 26.2 µg/mL)	100 (≈ 26.2 µg/mL)	4.9	
O=c1c(NCCc2ccccc2)c[nH]c2ccccc12 [Compound 35, 3-(Phenethylamino)quinolin-4(1H)-one]	no anti-mycobacterial or cytotoxic activity	> 200	> 200	> 100	no anti-mycobacterial or cytotoxic activity
COc1cc2ccnc(C(=O)NCCc3ccccc3)c2cc1OC [Compound 5, 6,7-Dimethoxy-N-phenethylisoquinoline-1-carboxamide]	weak anti-mycobacterial activity	100 (≈ 33.6 µg/mL)	200 (≈ 67.3 µg/mL)	11.9	
C#CCCNc1cnc2ccccc2c1 [Compound 46, N-(But-3-yn-1-yl)quinolin-3-amine]		> 200	> 200	53	
c1csc(CCNc2cnc3ccccc3c2)c1 [Compound 45, N-(2-(Thiophen-2-yl)ethyl)quinolin-3-amine]		6.25 (≈ 1.59 µg/mL)	50 (≈ 12.7 µg/mL)	14	
c1ccc2ncc(NCCc3cccc4ccccc34)cc2c1 [Compound 43, N-(2-(Naphthalen-1-yl)ethyl)quinolin-3-amine]	markedly reduced anti-mycobacterial activity	100 (≈ 29.8 µg/mL)	> 200	11	
c1ccc(CCNc2cnc3ccccc3c2)cc1 [Compound 6, N-Phenethylquinolin-3-amine]		6.25 (≈ 1.55 µg/mL)	50 (≈ 12.4 µg/mL)	18	
c1ccc2ncc(NCCC3CCCCC3)cc2c1 [Compound 42, N-(2-Cyclohexylethyl)quinolin-3-amine]		50 (≈ 12.7 µg/mL)	100 (≈ 25.4 µg/mL)	15	
c1ccc(CCNc2cncc3cccnc23)cc1 [Compound 7, N-Phenethyl-1,6-naphthyridin-8-amine]	weak anti-mycobacterial activity	100 (≈ 24.9 µg/mL)	50 (≈ 12.5 µg/mL)	8.1	
c1ccc(CCOc2cnc3ccccc3c2)cc1 [Compound 40, 3-Phenethoxyquinoline]	significantly weakened anti-mycobacterial activity	50 (≈ 12.5 µg/mL)	100 (≈ 24.9 µg/mL)	11	
C#CCN(CCc1ccccc1)c1cnc2ccccc2c1 [Compound 38, N-Phenethyl-N-(prop-2-yn-1-yl)quinolin-3-amine]	significantly weakened anti-mycobacterial activity	100 (≈ 28.6 µg/mL)	100 (≈ 28.6 µg/mL)	18	
COC1=CC(=O)c2cc(NCCc3ccccc3)cnc2C1=O [Compound 32, 7-Methoxy-3-(phenethylamino)quinoline-5,8-dione]	weakened anti-mycobacterial activity	25 (≈ 7.71 µg/mL)	50 (≈ 15.4 µg/mL)	< 1	enhanced cytotoxicity
